# According to PubChem BioAssay (NCI):
#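 Cells were grown in 96-well plates and exposed to each compound for 48 hours at five concentrations; endpoints were interpolated linearly between bracketing concentrations, or set to the highest concentration if not reached. TGI marks complete inhibition of growth.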
# Assays:
# Experiment in all cases: NCI-60 cell line screen, 48 h
# OVCAR-4 ovarian = tested on: OVCAR-4 ovarian
# MALME-3M melanoma = tested on: MALME-3M melanoma
# OVCAR-8 ovarian = tested on: OVCAR-8 ovarian
# OVCAR-3 ovarian = tested on: OVCAR-3 ovarian
# SNB-78 CNS = tested on: SNB-78 CNS
# EKVX NSCLC = tested on: EKVX NSCLC
# SK-MEL-28 melanoma = tested on: SK-MEL-28 melanoma
# A498 renal = tested on: A498 renal
# HOP-18 NSCLC = tested on: HOP-18 NSCLC
# UACC-62 melanoma = tested on: UACC-62 melanoma
# UACC-257 melanoma = tested on: UACC-257 melanoma
# NCI-H226 lung = tested on: NCI-H226 lung
# HT29 colon = tested on: HT29 colon
# SR leukemia = tested on: SR leukemia
# TK-10 renal = tested on: TK-10 renal
# K-562 leukemia = tested on: K-562 leukemia
# 786-0 renal = tested on: 786-0 renal
# ACHN renal = tested on: ACHN renal
# SF-295 CNS = tested on: SF-295 CNS
# SN12C renal = tested on: SN12C renal
# M14 melanoma = tested on: M14 melanoma
# HOP-62 NSCLC = tested on: HOP-62 NSCLC
# DMS 273 small cell lung = tested on: DMS 273 small cell lung
# LXFL 529 NSCLC = tested on: LXFL 529 NSCLC
# KM20L2 colon = tested on: KM20L2 colon
# SW-620 colon = tested on: SW-620 colon
# SK-OV-3 ovarian = tested on: SK-OV-3 ovarian
# A549 NSCLC = tested on: A549 NSCLC
# HOP-92 NSCLC = tested on: HOP-92 NSCLC
# NCI-H522 lung = tested on: NCI-H522 lung
# CAKI-1 renal = tested on: CAKI-1 renal
# OVCAR-5 ovarian = tested on: OVCAR-5 ovarian
# MOLT-4 leukemia = tested on: MOLT-4 leukemia
# DLD-1 colon = tested on: DLD-1 colon
# SK-MEL-2 melanoma = tested on: SK-MEL-2 melanoma
# CCRF-CEM leukemia = tested on: CCRF-CEM leukemia
# M19-MEL melanoma = tested on: M19-MEL melanoma
# HL-60(TB) leukemia = tested on: HL-60(TB) leukemia
# UO-31 renal = tested on: UO-31 renal
# LOX IMVI melanoma = tested on: LOX IMVI melanoma
# RXF 393 renal = tested on: RXF 393 renal
# SNB-19 CNS = tested on: SNB-19 CNS
# RXF-631 renal = tested on: RXF-631 renal
# IGROV1 ovarian = tested on: IGROV1 ovarian
# SF-268 CNS = tested on: SF-268 CNS
# KM12 colon = tested on: KM12 colon
# COLO 205 colon = tested on: COLO 205 colon
# NCI-H460 lung = tested on: NCI-H460 lung
# SNB-75 CNS = tested on: SNB-75 CNS
# SF-539 CNS = tested on: SF-539 CNS
# HCT-15 colon = tested on: HCT-15 colon
# NCI-H23 lung = tested on: NCI-H23 lung
# SK-MEL-5 melanoma = tested on: SK-MEL-5 melanoma
# HCT-116 colon = tested on: HCT-116 colon
structure (smiles),measurement,setting,value
Cc1ccc(-n2c(O)c(C=N)c(=O)n(-c3ccc(C)cc3)c2=O)cc1,TGI,OVCAR-4 ovarian,> 100 µM
same,TGI,MALME-3M melanoma,> 100 µM
same,TGI,OVCAR-8 ovarian,> 100 µM
same,TGI,OVCAR-3 ovarian,> 100 µM
same,TGI,SNB-78 CNS,> 100 µM
same,TGI,EKVX NSCLC,> 100 µM
same,TGI,SK-MEL-28 melanoma,> 100 µM
same,TGI,A498 renal,> 100 µM
same,TGI,HOP-18 NSCLC,> 100 µM
same,TGI,UACC-62 melanoma,> 100 µM
same,TGI,UACC-257 melanoma,> 100 µM
same,TGI,NCI-H226 lung,> 100 µM
same,TGI,HT29 colon,> 100 µM
same,TGI,SR leukemia,> 100 µM
same,TGI,TK-10 renal,> 100 µM
same,TGI,K-562 leukemia,> 100 µM
same,TGI,786-0 renal,> 100 µM
same,TGI,ACHN renal,> 100 µM
same,TGI,SF-295 CNS,> 100 µM
same,TGI,SN12C renal,> 100 µM
same,TGI,M14 melanoma,> 100 µM
same,TGI,HOP-62 NSCLC,> 100 µM
same,TGI,DMS 273 small cell lung,> 100 µM
same,TGI,LXFL 529 NSCLC,> 100 µM
same,TGI,KM20L2 colon,> 100 µM
same,TGI,SW-620 colon,> 100 µM
same,TGI,SK-OV-3 ovarian,78.8 µM
same,TGI,A549 NSCLC,> 100 µM
same,TGI,HOP-92 NSCLC,95.9 µM
same,TGI,NCI-H522 lung,> 100 µM
same,TGI,CAKI-1 renal,> 100 µM
same,TGI,OVCAR-5 ovarian,> 100 µM
same,TGI,MOLT-4 leukemia,> 100 µM
same,TGI,DLD-1 colon,> 100 µM
same,TGI,SK-MEL-2 melanoma,> 100 µM
same,TGI,CCRF-CEM leukemia,> 100 µM
same,TGI,M19-MEL melanoma,> 100 µM
same,TGI,HL-60(TB) leukemia,> 100 µM
same,TGI,UO-31 renal,> 100 µM
same,TGI,LOX IMVI melanoma,> 100 µM
same,TGI,RXF 393 renal,> 100 µM
same,TGI,SNB-19 CNS,> 100 µM
same,TGI,RXF-631 renal,> 100 µM
same,TGI,IGROV1 ovarian,> 100 µM
same,TGI,SF-268 CNS,> 100 µM
same,TGI,KM12 colon,> 100 µM
same,TGI,COLO 205 colon,> 100 µM
same,TGI,NCI-H460 lung,> 100 µM
same,TGI,SNB-75 CNS,75.2 µM
same,TGI,SF-539 CNS,> 100 µM
same,TGI,HCT-15 colon,> 100 µM
same,TGI,NCI-H23 lung,> 100 µM
same,TGI,SK-MEL-5 melanoma,> 100 µM
same,TGI,HCT-116 colon,> 100 µM
